Data published in BigSolDB 2.1.

COc1c(C)c2c(c(O)c1C/C=C(\C)CCC(=O)OCCN1CCOCC1)C(=O)OC2
solubility (mole fraction)
Details | 278.15 K | 283.15 K | 288.15 K | 293.15 K | 298.15 K | 303.15 K | 308.15 K | 313.15 K | 318.15 K
in DMSO | – | – | – | 0.0166 | 0.0214 | 0.0263 | 0.0322 | 0.0389 | 0.046
in ethanol | 0.00352 | 0.00394 | 0.00449 | 0.00511 | 0.00581 | 0.00659 | 0.00749 | 0.00847 | 0.0095
in isopropanol | 0.00538 | 0.00592 | 0.00664 | 0.00732 | 0.00821 | 0.0091 | 0.00998 | 0.011 | 0.0121
in propylene glycol | 0.000349 | 0.000486 | 0.000633 | 0.00081 | 0.001 | 0.00122 | 0.00145 | 0.00172 | 0.00199
in water | 2.62e-07 | 4.16e-07 | 6.62e-07 | 1.05e-06 | 1.55e-06 | 2.12e-06 | 2.84e-06 | 3.68e-06 | 4.51e-06
